Assay results as given in ChEMBL document CHEMBL4765244, “Synthesis, bioconversion, pharmacokinetic and pharmacodynamic evaluation of N-isopropyl-oxy-carbonyloxymethyl prodrugs of CZh-226, a potent and selective PAK4 inhibitor” (Eur J Med Chem, 2020).

Experiments:
[1] = Half life in Wistar rat assessed as (R)-(6-chloro-4-(5-cyclopropyl-1H-pyrazol-3-ylamino)quinazolin-2-yl)(3-methylpiperazin-1-yl)methanone hydrochloride at 12.43 mg/kg, po measured upto 24 hrs by LC/MS/MS analysis; type: ADME, organism-based; details: in vivo
[2] = AUC in Wistar rat assessed as (R)-(6-chloro-4-(5-cyclopropyl-1H-pyrazol-3-ylamino)quinazolin-2-yl)(3-methylpiperazin-1-yl)methanone hydrochloride at 12.43 mg/kg, po measured upto 24 hrs by LC/MS/MS analysis; type: ADME, organism-based; design: route oral, dose 12.43 mg/kg, time <=24; details: in vivo
[3] = Chemical stability of the compound in pH 6.8 simulated intestinal fluid assessed as compound remaining measured after 2 hrs by HPLC analysis; type: physicochemical
[4] = Chemical stability of the compound in pH 7.4 PBS buffer assessed as compound remaining measured after 2 hrs by HPLC analysis; type: physicochemical; details: read-out: Stabilty
[5] = Stability of the compound in human plasma assessed as compound remaining measured within 120 mins at 37 degC by HPLC analysis; type: ADME, cell-free; details: read-out: Stabilty
[6] = Tmax in Wistar rat assessed as (R)-(6-chloro-4-(5-cyclopropyl-1H-pyrazol-3-ylamino)quinazolin-2-yl)(3-methylpiperazin-1-yl)methanone hydrochloride at 12.43 mg/kg, po measured upto 24 hrs by LC/MS/MS analysis; type: ADME, organism-based; details: in vivo
[7] = Chemical stability of the compound in pH 1.2 simulated gastric fluid buffer assessed as compound remaining measured after 2 hrs by HPLC analysis; type: physicochemical
[8] = Prodrug conversion in human plasma assessed as release of active metabolite (R)-(6-chloro-4-(5-cyclopropyl-1H-pyrazol-3-ylamino)quinazolin-2-yl)(3-methylpiperazin-1-yl)methanone hydrochloride measured within 120 mins at 37 degC by HPLC analysis; type: ADME, cell-free; details: 2 h
[9] = Stability of the compound in rat liver S9 fraction assessed as compound remaining measured after 60 mins at 37 degC by LC-MS/MS analysis; type: ADME, subcellular; details: read-out: Stabilty
[10] = Cmax in Wistar rat assessed as (R)-(6-chloro-4-(5-cyclopropyl-1H-pyrazol-3-ylamino)quinazolin-2-yl)(3-methylpiperazin-1-yl)methanone hydrochloride at 12.43 mg/kg, po measured upto 24 hrs by LC/MS/MS analysis; type: ADME, organism-based; design: route oral, dose 12.43 mg/kg, time <=24; details: in vivo
[11] = AUC (0 to infinity) in Wistar rat assessed as (R)-(6-chloro-4-(5-cyclopropyl-1H-pyrazol-3-ylamino)quinazolin-2-yl)(3-methylpiperazin-1-yl)methanone hydrochloride at 12.43 mg/kg, po measured upto 24 hrs by LC/MS/MS analysis; type: ADME, organism-based; design: route oral, dose 12.43 mg/kg, time <=24; details: in vivo
[12] = Tmax in Wistar rat assessed as (R)-(6-chloro-4-(5-cyclopropyl-1H-pyrazol-3-ylamino)quinazolin-2-yl)(3-methylpiperazin-1-yl)methanone hydrochloride at 14.18 mg/kg, po measured upto 24 hrs by LC/MS/MS analysis; type: ADME, organism-based; details: in vivo
[13] = Cmax in Wistar rat assessed as (R)-(6-chloro-4-(5-cyclopropyl-1H-pyrazol-3-ylamino)quinazolin-2-yl)(3-methylpiperazin-1-yl)methanone hydrochloride at 14.18 mg/kg, po measured upto 24 hrs by LC/MS/MS analysis; type: ADME, organism-based; design: route oral, dose 14.18 mg/kg, time <=24; details: in vivo
[14] = AUC in Wistar rat assessed as (R)-(6-chloro-4-(5-cyclopropyl-1H-pyrazol-3-ylamino)quinazolin-2-yl)(3-methylpiperazin-1-yl)methanone hydrochloride at 14.18 mg/kg, po measured upto 24 hrs by LC/MS/MS analysis; type: ADME, organism-based; design: route oral, dose 14.18 mg/kg, time <=24; details: in vivo
[15] = Half life in Wistar rat assessed as (R)-(6-chloro-4-(5-cyclopropyl-1H-pyrazol-3-ylamino)quinazolin-2-yl)(3-methylpiperazin-1-yl)methanone hydrochloride at 14.18 mg/kg, po measured upto 24 hrs by LC/MS/MS analysis; type: ADME, organism-based; details: in vivo
[16] = AUC (0 to infinity) in Wistar rat assessed as (R)-(6-chloro-4-(5-cyclopropyl-1H-pyrazol-3-ylamino)quinazolin-2-yl)(3-methylpiperazin-1-yl)methanone hydrochloride at 14.18 mg/kg, po measured upto 24 hrs by LC/MS/MS analysis; type: ADME, organism-based; design: route oral, dose 14.18 mg/kg, time <=24; details: in vivo

t1/2 [1] [h]	AUC [2] [µg·h/mL]	remaining at 2 h [4] [%]	remaining at 2 h [5] [%]	Tmax [6] [h]	Drug metabolism [8] [%]	remaining at 1 h [9] [%]	Cmax [10] [ng/mL]	AUC [11] [µg·h/mL]	Tmax [12] [h]	Cmax [13] [ng/mL]	AUC [14] [µg·h/mL]	t1/2 [15] [h]	AUC [16] [µg·h/mL]	SMILES	Stability [3] [%]	Stability [7] [%]
16.723	0.0635	99	73.7	1.5	25.7	61.1	7.4	0.1112						CC(C)COC(=O)N1CCN(C(=O)c2nc(Nc3cc(C4CC4)[nH]n3)c3cc(Cl)ccc3n2)C[C@H]1C	88.8	70.2
		90.5	49.4		46.3	66.3			8	3.9	0.0351	8.378	0.0442	CC(OC(=O)N1CCN(C(=O)c2nc(Nc3cc(C4CC4)[nH]n3)c3cc(Cl)ccc3n2)C[C@H]1C)OC(=O)C(C)(C)C (some centres not stated)	88.7	92.2
